# Reference: patent publication US11447638B2, “Acetalanthraquinone derivatives useful for cellular staining” (BIOSTATUS LIMITED, priority 2016, dated 2022)
# pIC50: −log10 of the molar value.
# Legend:
# A549 = assay: MTT cellular viability (growth inhibition) assay, A549; assay type: cell-based; conditions: Homo sapiens, 0.25-100 μM, 72 h, Table 3
# Protocol: (§1) The viability of A549 or MCF7 in response to compounds was determined using the MTT (3-(4,5-dimethylthiazolyl-2-)-2, 5-diphenyltetrazolium bromide) assay according to the protocol set out in Mosmann T., Rapid colorimetric assay for cellular growth and survival: application to proliferation and cytotoxicity assays. Journal of immunological methods 1983; 65:55-63.
# (§2) Initially, cells were seeded into a rounded-bottom 96 well plate (Corning) at six different cell seeding densities (0.5×104, 1×104, 2×104, 3×104, 4×104, and 5×104) per mL of R10 media (cells/mL) in order to optimise the assay and establish the most suitable seeding assay. Concentration of 1×10^4 cells/mL was determined to be the optimum seeding density for both cell lines for 96 h total incubation. A control lane contained supplemented R10 only. The 96 well plates were incubated overnight at 37° C., 5% CO2 and 100% humidity to allow cell adhesion. Cells were then treated respectively with novel AAQs (0.25-100 μM) or growth inhibition (IC50) of compounds of the invention was studied against MCF7 and A549 cancer cell lines. Compounds were tested with a concentration range between 0.25 and 100 μM for 72 h and doxorubicin, as positive cytotoxic control, was tested in parallel at the same doses.
# U-2 OS cells = assay: Confocal laser scanning microscopy (CLSM) localisation analysis; assay type: cell-based, human; conditions: 30 min incubation, Ex 637 nm, Em >665 nm; for subcellular localisation by CLSM: FIG. 4 and 5
# Protocol: Confocal laser scanning microscopy (CLSM) was used to analyse the localisation of compounds BST-100, BST-101 and BST-106 with the U-2 OS cells, as it permitted the acquisition of volume limited optical sections through the cell and media. Excitation (637 nm) and emission (>665 nm) values for the probe analysis were the optimal conditions. The data sets obtained were processed and assembled into a single maximum projection image.
# The patterns were analysed after 30 min incubation at different z depths and eliminating the solution background. The nucleus/cytoplasm ratio was calculated to quantify the localisation of the probe per cell.
# A Radiance CLSM (BioRad Microscience) was used attached to an inverted Nikon microscope. Image acquisition was performed using excitation (637 nm) and emission (>665 nm) wavelengths. The histogram plot reports the nucleus/cytoplasm index to determine DNA binding in live cells. The calibration bar represents 10 μm.
# The compounds BST-108, BST-109 were analysed in the same way.
# MCF7 = assay: MTT cellular viability (growth inhibition) assay, MCF7; assay type: cell-based; conditions: Homo sapiens, 0.25-100 μM, 72 h, Table 3
# Protocol: as §1, §2
# A549 live cells = assay: Loading of A549 live cells, wide-field fluorescence microscopy; assay type: cell-based, human; conditions: 20 μM, 30 min incubation, FIG. 3
# Protocol: (§3) Before analysis, cells were incubated at 37° C. in the dark for the period designated. Samples were analysed directly without any further washing step. For live cell labelling cells were seeded, plated in a similar way, into a similar multi-well dish for optimal optical performance and could be used across all microscope platforms.
# (§4) This basic protocol was the standard for testing the patterns of AAQ agents at 20 μM, compared to 20 μM of DRAQ5 as the benchmark reference (both in terms of cellular location and ability to detect the red fluorescence).
# Low resolution wide-field fluorescence microscopy was used to evaluate cell uptake and localisation of the probe compounds. The system was an Axiovert 100 microscope (Carl Zeiss, Welwyn Garden City, UK) ×10 0.3 NA air objective lens and an ORCA-ER CCD camera (Hamamatsu, Reading, UK). Illumination was controlled by a shutter in front of the transmission lamp. Image capture was controlled using Metamorph software. Human non-small cell lung cancer A549 cell line was used as the cell model to determine whether variation of the probe loading and localisation occurred in cell population sustaining a “side population” (SP) (Smith P J, Wiltshire M, Chappell S C, Cosentino L, Burns P A, Pors K, Errington R J. Kinetic analysis of intracellular Hoechst 33342—DNA interactions by flow cytometry: misinterpretation of side population status? Cytometry A 2013; 83:161-9) with a known capacity to efflux xenobiotic molecules, including the DNA dye Hoechst 33342.
# Cells were incubated for 30 min with each compound and then images were collected at a 30 ms exposure time using low resolution wide-field fluorescence microscopy. Using an Axiovert 100 microscope (Carl Zeiss, Welwyn Garden City, UK) ×10 0.3 NA air objective lens and an ORCA-ER CCD camera (Hamamatsu, Reading, UK). Illumination was controlled by a shutter in front of the transmission lamp. Image capture was controlled using Metamorph software. The calibration bar represents 50 μm.
# A549 cells = assay: Flow cytometry analysis of cell uptake before/after hydrolysis; assay type: cell-based, human; conditions: 20 μM, 30 min; for % ile (25): low loader cell population
# Protocol: Flow cytometry analysis was performed to evaluate the effect of pre-treatment with HCl to generate an active aldehyde on the cell uptake properties. A549 cells were incubated for 30 min with compounds of Formula (I) and its hydrolysed forms (20 μM) prior to analysis. The rate of uptake was tested in A549 cell culture media and in Aldefluor buffer, containing the MDR-blocker verapamil (Pearce and Bonnet 2007), to evaluate the effect in uptake with/without the Aldefluor assay system. Analysis was conducted in the viable subset of cells, corresponding to ˜95% of the total amount under investigation.
# Aldefluor buffer contained verapamil vs. cell media. The cells were incubated with 20 μM of the respective AAQ/HAAQs (30 min) before analysis
# Statistical analysis of A549 uptake before/after hydrolysis was also studied. Experiments were performed in cell media versus Aldefluor buffer. Data were processed using FlowJo software (Tree Star). DRAQ5 was used to set the dynamic range and as control dye and empty cells were used to determine auto-fluorescence.
# [1] = Absorption and fluorescence spectra of compounds in PBS or HEPES; assay type: physicochemical; conditions: for peak excitation wavelength: excitation wavelength used for fluorescence spectra of FIG. 1A/1B; for fluorescence emission, 540 nm (Ex in PBS): excited at 540 nm; for fluorescence emission, 540 nm (Ex in PBS) / fluorescence emission, λ1 nm (Ex in HEPES) / fluorescence emission, λ1 nm (Ex in PBS): 20 μM; for fluorescence emission, λ1 nm (Ex in HEPES) / fluorescence emission, λ1 nm (Ex in PBS): excited at absorption peak 1 (λ1)
# Protocol: The compounds were exited at 540 nm and at the wavelength of their absorption peak 1 (λ1 nm). The far-red fluorescent DNA dye DRAQ5 was used as reference.
# Compounds were dissolved in DMSO (Sigma) to 20 mM stock concentration. DRAQ5 (Biostatus Ltd) was used as a control anthraquinone agent dissolved in deionised water. Working solutions were prepared in PBS (phosphate buffered saline; Sigma) or HEPES (4-(2-hydroxyethyl)-1-piperazineethanesulfonic acid; Sigma) at 20 or 40 μM. Probe solutions (20 μM), respectively in PBS or HEPES, were pipetted into a 1 mL quartz cuvette (Thermo Fisher Scientific). After obtaining baseline spectra in relevant buffer to zero the instrument, absorbance measurements were obtained using a Beckmann Coulter DU 800 UV/Visible spectrophotometer. The excitation wavelengths were scanned from 280 to 800 nm. Fluorescent spectral scans were performed using a Perkin Elmer LS-50B Luminescence spectrophotometer. To obtain emission scans, the excitation wavelength was set accordingly to the maximum values for each agent or another designated excitation wavelength that matches typical laser lines; and the emission wavelength were scanned from 400 nm to 900 nm in 1 nm increments. A Xenon flash lamp was used as the light source, with the lamp energy set to high. For each data point ten measurements were acquired with the photomultiplier tube sensitivity set at 125.
# Compounds were excited at a wavelength corresponding to the first absorbance peak 1 (FIG. 1A and FIG. 1B show absorption (line) and fluorescence (dots) spectra of compounds; both are normalised to peak value.
# [2] = test system: fixed human osteosarcoma U-2 OS cells; assay: Labelling of fixed cells, wide-field fluorescence microscopy; assay type: cell-based; conditions: 20 μM, 1 h exposure in PBS, FIG. 2
# Protocol: Cells were seeded in a 24 well coverslip bottomed-plate, cultured overnight in McCoys media. 24 or 48 hours later the cells were washed gently with 3×2 mL PBS per well. The PBS was removed and 0.5 mL of 4% paraformaldehyde solution [a 4% paraformaldehyde solution in PBS was made fresh each time from a 16% stock solution (Thermo Fisher Scientific)] was added in each well and cells were incubated for 30 min. The paraformaldehyde was removed and cells were washed 3×2 mL PBS per well. 1 mL of PBS or HEPES was added to each well.
# as §3, §4
# Low resolution wide-field fluorescence microscopy was used to evaluate cell labelling in fixed human osteosarcoma U-2 OS cells. The system was an Axiovert 100 microscope (Carl Zeiss, Welwyn Garden City, UK) ×10 0.3 NA air objective lens and an ORCA-ER CCD camera (Hamamatsu, Reading, UK). Illumination was controlled by a shutter in front of the transmission lamp. Image capture was controlled using Metamorph software. This evaluates the ability of the compounds to label cellular compartments without active uptake or efflux prohibiting delivery into the given cell. Image collection was performed after 1 h of exposure to probes in PBS. The calibration bar represents 50 μm.
# MCP1 = assay: Further tests against cell lines, MCP1; assay type: cell-based; conditions: ratio to A2780
# Protocol: (§5) Further tests were carried out against A2780, 2780AD and MCP1 cell lines.
# 2780/cp70 = assay: Further tests against cell lines, 2780/cp70; assay type: cell-based; conditions: ratio to A2780
# 2780AD = assay: Further tests against cell lines, 2780AD; assay type: cell-based; conditions: ratio to A2780
# Protocol: as §5
# [3] = solution: Aldefluor buffer with verapamil
compound,measurement,setting,value
"COC(CNC(=O)CCNc1ccc(NCCN(C)C)c2c1C(=O)c1c(O)ccc(O)c1C2=O)OC [BST-108, N-(2,2-Dimethoxyethyl)-3-(4-(2-(dimethylamino)ethylamino)-5,8-dihydroxy-9,10-dioxo-9,10-dihydroanthracen-1-ylamino)propanamide]",pIC50,A549,5.77
same,subcellular localisation by CLSM,U-2 OS cells,"strong nuclear uptake and perinuclear staining, with possible ER accumulation"
same,pIC50,MCF7,5.84
same,fluorescence brightness / background in live cells,A549 live cells,very bright cellular fluorescence
same,"Median (fluorescence, uptake)",A549 cells; [3],67.08
same,% ile (25),A549 cells; [3],57.65
same,"Median (fluorescence, uptake)",A549 cells; solution: media,75.48
same,% ile (25),A549 cells; solution: media,65.32
same,peak excitation wavelength,[1],610 nm
same,"fluorescence emission, 540 nm (Ex in PBS)",[1],692 nm
same,"fluorescence emission, λ1 nm (Ex in HEPES)",[1],684 nm
same,"fluorescence emission, λ1 nm (Ex in PBS)",[1],685 nm
same,staining pattern in fixed cells,[2],heterogeneity in cytoplasmic staining and positive spots in the nuclei
"COC(CC(=O)NCCNc1ccc(NCCN(C)C)c2c1C(=O)c1c(O)ccc(O)c1C2=O)OC [BST-111, N-(2-(4-(2-(Dimethylamino)ethylamino)-5,8-dihydroxy-9,10-dioxo-9,10-dihydroanthracen-1-ylamino)ethyl)-3,3-dimethoxypropanamide]",pIC50,A549,4.42
same,specific feature of localisation by CLSM,U-2 OS cells,mainly loaded in the nuclear compartment
same,subcellular localisation by CLSM,U-2 OS cells,"strong nuclear uptake and perinuclear staining, with possible ER accumulation"
same,pIC50,MCF7,5.74
same,staining pattern in live cells,A549 live cells,greater contrast and diffuse cellular staining
same,"Median (fluorescence, uptake)",A549 cells; [3],74.94
same,% ile (25),A549 cells; [3],64.64
same,"Median (fluorescence, uptake)",A549 cells; solution: media,72.42
same,% ile (25),A549 cells; solution: media,62.72
same,peak excitation wavelength,[1],610 nm
same,"fluorescence emission, 540 nm (Ex in PBS)",[1],684 nm
same,"fluorescence emission, λ1 nm (Ex in HEPES)",[1],684 nm
same,"fluorescence emission, λ1 nm (Ex in PBS)",[1],684 nm
same,fluorescence brightness / background in fixed cells,[2],very high background fluorescence
same,staining pattern in fixed cells,[2],cytoplasmic staining and heterogeneity on labelling of mitotic figures
COC(CNCCCCCCNc1ccc(NCCCCCCNCC(OC)OC)c2c1C(=O)c1c(O)ccc(O)c1C2=O)OC [BST-300],RF (MCP1),MCP1,0.37
same,RF (2780/cp70),2780/cp70,0.17
same,RF (2780AD),2780AD,1.07
"COC(CNCCCCCCNc1ccc(NCCN(C)C)c2c1C(=O)c1c(O)ccc(O)c1C2=O)OC [BST-301, 1-((6-((2,2-dimethoxyethyl)amino)hexyl)amino)-4-((2-(dimethylamino)ethyl)amino)-5,8-dihydroxyanthracene-9,10-dione]",RF (MCP1),MCP1,0.39
same,RF (2780/cp70),2780/cp70,0.10
same,RF (2780AD),2780AD,2.8
"COC(CNCCNc1ccc(NCCN(C)C)c2c1C(=O)c1c(O)ccc(O)c1C2=O)OC [BST-302, 1-((2-((2,2-dimethoxyethyl)amino)ethyl)amino)-4-((2-(dimethylamino)ethyl)amino)-5,8-dihydroxyanthracene-9,10-dione]",RF (MCP1),MCP1,0.61
same,RF (2780/cp70),2780/cp70,0.32
same,RF (2780AD),2780AD,81.4
"COC(CNCCCNc1ccc(NCCN(C)C)c2c1C(=O)c1c(O)ccc(O)c1C2=O)OC [BST-303, 1-((3-((2,2-dimethoxyethyl)amino)propyl)amino)-4-((2-(dimethylamino)ethyl)amino)-5,8-dihydroxyanthracene-9,10-dione]",RF (MCP1),MCP1,0.36
same,RF (2780/cp70),2780/cp70,0.19
same,RF (2780AD),2780AD,9.7
"COC(CNCCCCNc1ccc(NCCN(C)C)c2c1C(=O)c1c(O)ccc(O)c1C2=O)OC [BST-304, 1-((4-((2,2-dimethoxyethyl)amino)butyl)amino)-4-((2-(dimethylamino)ethyl)amino)-5,8-dihydroxyanthracene-9,10-dione]",RF (MCP1),MCP1,0.36
same,RF (2780/cp70),2780/cp70,0.07
same,RF (2780AD),2780AD,11.8
"COC(CNCCCCCNc1ccc(NCCN(C)C)c2c1C(=O)c1c(O)ccc(O)c1C2=O)OC [BST-305, 1-((5-((2,2-dimethoxyethyl)amino)pentyl)amino)-4-((2-(dimethylamino)ethyl)amino)-5,8-dihydroxyanthracene-9,10-dione]",RF (MCP1),MCP1,0.53
same,RF (2780/cp70),2780/cp70,0.14
same,RF (2780AD),2780AD,5.2
